From patent publication US20020183384A1, “Methods of treating nuclear factor-kappa B mediated diseases and disorders” (priority 2001, published 2002)
Read-outs that look alike come from different tables or passages of the source.

System: NF-κB mediated transcription
Assay: NF-κB driven β-lactamase reporter assay in ECV-304 NF-κB.βlaZ cells (AURORA CCF2 fluorescence)
Assay type: cell-based, human
Conditions: 10 μM compound, ECV-304 NF-κB.βlaZ cells stimulated with 10 ng/mL TNF-α or 100 pg/mL IL-1β, 6 hours at 37° C., inhibition of maximum blue/green ratio; for inhibition at 10 µM: Homo sapiens, read-out: Percent Inhibition at 10 μM
Source text: Introduction: Described below is an in vitro, cell-based, high throughput screening assay that reliably identifies inhibitors of NF-κB mediated transcription.
The assay takes advantage of AURORA (Aurora Bioscience Corporation, La Jolla, Calif.) fluorescence technology. Endothelial cell vein-304 (ECV-304) cells, an endothelial-like immortalized cell type, may be stably transfected with a plasmid vector containing the cDNA for the enzyme β-lactamase (under the control of a basal promoter, Stratagene pNFκB-luc vector) and 5 copies of an human immunodeficiency virus-1 (HIV-1) NF-κB binding site. ECV-304 cells are described by Takahashi K. et al. in Spontaneous Transformation and Immobilization of Human Endothelial Cells, In Vitro Cell. Dev. Biol. 1990;25:265-274. Activation of NF-κB in ECV-304 by cytokines such as TNF-α or interleuken-1 beta (IL-1β) results in the production of β-lactamase, which cleaves a green fluorescent substrate (excitation/emission wavelengths 395 nm1530 nm) to yield a blue fluorescent product (excitation/emission wavelengths 395 nm/460 nm). Visually, the uncleaved green fluorescent substrate is sequestered intracellularly and emits green fluorescence, while the cleaved product emits blue fluorescence. Fluorescence is quantitated spectrophotometrically, and the spectral intensity of blue fluorescence versus green fluorescence can be used to calculate the degree of activation of NF-κB.
The assay was performed as outlined here and described in detail below. ECV-304 cells permanently transfected with the NF-κB driven β-lactamase gene (ECV-304 NF-κB.βlaZ) were plated in clear-bottom, black 96-well plates (1.25×10^4 cells/well) in media-199 (M-199) media containing 2% fetal bovine serum (FBS). […] The AURORA fluorescent disclosing reagent was then added. After one additional hour, the plates were read in a fluorometer at the blue 395 nm/460 nm (excitation/emission) and green 395 nm/530 nm wavelengths. Then the blue/green emission ratio was calculated. […] An IC50 for said sulfonylaminocarbonyl derivative was determined from a dose-response curve. This assay was designed to be optionally run in either high or low throughput screening modes.
Five copies of the HIV-1 NF-κB binding site (5′-[…]-3′) along with a TATA box were inserted into the EcorRI/BamHI sites of plasmid pMCRBlaZ to create plasmid p5×KBBlaZ, which procedure is illustrated in Scheme 1 below. [formula]
Cells were selected for antibiotic resistance with Zeocin for approximately 2 weeks. After the stable population had been expanded to a significant number of cells, it was stimulated with IL-1β and stained with AURORA CCF2 dye, a membrane permeant, intracellularly-trapped, fluorescent substrate. Cells that fluoresced blue (indicating a positive response of the NF-κB/β-lactamase reporter to stimulation by IL-1β) in the stimulated/stained population were then sorted by flow cytometry into a pool. The pool was expanded and stained with CCF2, and then the cells that fluoresced green from this unstimulated population (indicating a low background of the NF-κB/β-lactamase reporter construct) were cloned by flow cytometry after adding 1 cell per well in 96-well plates. Clones were allowed to expand. Each cloned cell line was then examined for fold stimulation after stimulation with IL-1β using a CCF2 reporter assay, and these stimulated cells were compared to unstimulated cells.
Cells: ECV-304 NF-κB β-Lactamase clone 1E8
Inhibitors: Prepared stock solutions of aminosulfonyl derivatives at 10 mM concentration in DMSO;
c) Added 10 μL of B into appropriate well in assay plate (the final concentration of drug is 10 μM), and […]

For COC(=O)C(C)(Cc1c[nH]c2ccccc12)NS(=O)(=O)NC(=O)OC1C2CC3CC(C2)CC1C3 (racemic) [Example 101, DL-Tryptophan, α-methyl-N-[[[(tricyclo[3.3.1.1^3,7]dec-2-yloxy)-carbonyl]amino]sulfonyl]-, methyl ester], the “Percent Inhibition at 10 μM” value was <10%.

CC1(C)OCC(NC(=O)NS(=O)(=O)NC2COC(C)(C)OC2c2ccccc2)C(c2ccccc2)O1 (single isomer, unassigned) [Example 105, Urea, N-(2,2-dimethyl-4-phenyl-1,3-dioxan-5-yl)-N′-[[(2,2-dimethyl-4-phenyl-1,3-dioxan-5-yl)amino]sulfonyl]-, stereoisomer] was tested, and the “Percent Inhibition at 10 μM” value was <10%.

Work on CC(C)c1cccc(C(C)C)c1OC(=O)NS(=O)(=O)NC(c1ccccc1)c1ccccc1 [Example 1, Carbamic acid, [[(diphenylmethyl)amino]sulfonyl]-, 2,6-bis(1-methylethyl)phenyl ester] yielded an inhibition at 10 µM of 24.8%.

Compound CC(C)(C)c1cccc(C(C)(C)C)c1OC(=O)NS(=O)(=O)NC(c1ccccc1)c1ccccc1 [Example 2, Carbamic acid, [[(diphenylmethyl)amino]sulfonyl]-, 2,6-bis(1,1-dimethylethyl)phenyl ester] has an inhibition at 10 µM of 37.2%.

With Cc1cc(C(C)(C)C)c(OC(=O)NS(=O)(=O)NC(c2ccccc2)c2ccccc2)c(C(C)(C)C)c1 [Example 3, Carbamic acid, [[(diphenylmethyl)amino]sulfonyl]-, 2,6-bis(l,1-dimethylethyl)-4-methylphenyl ester] the “Percent Inhibition at 10 μM” value was 79.34%.

Work on CC(C)c1cccc(C(C)C)c1NS(=O)(=O)NC(=O)Oc1c(C(C)C)cccc1C(C)C [Example 4, Carbamic acid, [[[2,6-bis(1-methylethyl)phenyl]amino]sulfonyl]-, 2,6-bis(1-methylethyl)phenyl ester] yielded an inhibition at 10 µM of 35.3%.

For CC(C)c1cccc(C(C)C)c1NS(=O)(=O)NC(=O)Oc1c(C(C)(C)C)cccc1C(C)(C)C [Example 5, Carbamic acid, [[[2,6-bis(1-methylethyl)phenyl]amino]sulfonyl]-, 2,6-bis(1,1-dimethylethyl)phenyl ester], the inhibition at 10 µM was 56.4%.

In the case of Cc1cc(C(C)(C)C)c(OC(=O)NS(=O)(=O)Nc2c(C(C)C)cccc2C(C)C)c(C(C)(C)C)c1 [Example 6, Carbamic acid, [[[2,6-bis(1-methylethyl)phenyl]amino]sulfonyl]-, 2,6-bis(1,1-dimethylethyl)-4-methylphenyl ester], the inhibition at 10 µM is reported as 64.9%.

For CC(C)c1cccc(C(C)C)c1NC(=O)NS(=O)(=O)Nc1c(C(C)C)cccc1C(C)C [Example 7, Urea, N-[2 ,6-bis(1-methylethyl)phenyl]-N′-[[[2,6-bis(1-methylethyl)phenyl]-amino]sulfonyl]-], the “Percent Inhibition at 10 μM” value was 37.04%.

CC(C)c1cccc(C(C)C)c1NC(=O)NS(=O)(=O)NC(c1ccccc1)c1ccccc1 [Example 8, Urea, N-[2,6-bis(1-methylethyl)phenyl]-N′-[[(diphenylmethyl)amino]-sulfonyl]-] was tested, and the inhibition at 10 µM (ECV-304, 6 h) was < 10%.

With CC(C)c1cccc(C(C)C)c1NC(=O)NS(=O)(=O)NCC(c1ccccc1)c1ccccc1 [Example 9, Urea, N-[2,6-bis(1-methylethyl)phenyl]-N′-[[(2,2-diphenylethyl)amino]-sulfonyl]-] the inhibition at 10 µM (ECV-304, 6 h) was 33.1%.

For CC(C)c1cccc(C(C)C)c1OC(=O)NS(=O)(=O)NCC(c1ccccc1)c1ccccc1 [Example 10, Carbamic acid, [[(2,2-diphenylethyl)amino]sulfonyl]-, 2,6-bis(1-methylethyl)-phenyl ester], the inhibition at 10 µM was 39.7%.

For CC(C)(C)c1cccc(C(C)(C)C)c1OC(=O)NS(=O)(=O)NCC(c1ccccc1)c1ccccc1 [Example 11, Carbamic acid, [[(2,2-diphenylethyl)amino]sulfonyl]-, 2,6-bis(1,1-dimethylethyl)-phenyl ester], the inhibition at 10 µM was 50.1%.

For Cc1cc(C(C)(C)C)c(OC(=O)NS(=O)(=O)NCC(c2ccccc2)c2ccccc2)c(C(C)(C)C)c1 [Example 12, Carbamic acid, [[(2,2-diphenylethyl)amino]sulfonyl]-, 2,6-bis(1,1-dimethylethyl)-4-methylphenyl ester], the inhibition at 10 µM was 57%.

For CC(C)c1cccc(C(C)C)c1OC(=O)NS(=O)(=O)Nc1ccccc1 [Example 13, Carbamic acid, [(phenylamino)sulfonyl]-, 2,6-bis(1-methylethyl)phenyl ester], the inhibition at 10 µM was < 10%.

CC(C)(C)c1cc(O)cc(C(C)(C)C)c1OC(=O)NS(=O)(=O)Nc1ccccc1 [Example 14, Carbamic acid, [(phenylamino)sulfonyl]-, 2,6-bis(1,1-dimethylethyl)-4-hydroxyphenyl ester] gave an inhibition at 10 µM of 13.8%.

Work on CC(C)(C)c1cccc(C(C)(C)C)c1OC(=O)NS(=O)(=O)Nc1ccccc1 [Example 15, Carbamic acid, [(phenylamino)sulfonyl]-, 2,6-bis(1,1-dimethylethyl)-phenyl ester] yielded an inhibition at 10 µM of 12.6%.

CC(C)c1cccc(C(C)C)c1OC(=O)NS(=O)(=O)Nc1nc2ccccc2[nH]1 [Example 16, Carbamic acid, [(1H-benzimdazol-2-ylamino)sulfonyl]-, 2,6-bis(1-methylethyl)-phenyl ester] was tested, and the “Percent Inhibition at 10 μM” value was <10%.

Work on CC(C)c1cccc(C(C)C)c1NC(=O)NS(=O)(=O)N(Cc1ccccc1)Cc1ccccc1 [Example 17, N-[2,6-bis(1-methylethyl)phenyl]-N′-[[bis(phenylmethyl)amino]-sulfonyl]-urea] yielded an inhibition at 10 µM (ECV-304, 6 h) of 43.8%.

CC(C)c1cccc(C(C)C)c1NS(=O)(=O)NC(=O)NC(c1ccccc1)c1ccccc1 [Example 18, N-[[[2,6-bis(1-methylethyl)phenyl]amino]sulfonyl]-N′-(diphenylmethyl)-urea] was tested, and the inhibition at 10 µM (ECV-304, 6 h) was 35.9%.

For CC(C)c1cccc(C(C)C)c1NC(=O)NS(=O)(=O)NC1c2ccccc2-c2ccccc21 [Example 19, N-[2,6-bis(1-methylethyl)phenyl]-N′-[(9H-fluoren-9-ylamino)-sulfonyl]-urea], the inhibition at 10 µM (ECV-304, 6 h) was 20.2%.

CC(C)c1cccc(C(C)C)c1NC(=O)NS(=O)(=O)N(C(C)C)C(C)C [Example 20, N-[2,6-bis(1-methylethyl)phenyl]-N′-[[bis(1-methylethyl)amino]-sulfonyl]-urea] was tested, and the inhibition at 10 µM (ECV-304, 6 h) was < 10%.

CCCCN(CCCC)S(=O)(=O)NC(=O)Nc1c(C(C)C)cccc1C(C)C [Example 21, N-[2,6-bis(1-methylethyl)phenyl]-N′-[(dibutylamino)sulfonyl]-urea] gave an inhibition at 10 µM (ECV-304, 6 h) of 29.4%.

CC(C)c1cccc(C(C)C)c1NC(=O)NS(=O)(=O)N(Cc1ccccc1)C(C)C [Example 22, N-[2,6-bis(1-methylethyl)phenyl]-N′-[[(1-methylethyl)-(phenylmethyl)amino]-sulfonyl]-urea] gave an inhibition at 10 µM (ECV-304, 6 h) of 20.2%.

CCCCCCCCN(CCCCCCCC)S(=O)(=O)NC(=O)Nc1c(C(C)C)cccc1C(C)C [Example 23, N-[2,6-bis(1-methylethyl)phenyl]-N′-[(dioctylamino)sulfonyl]-urea] was tested, and the inhibition at 10 µM (ECV-304, 6 h) was 38.7%.

For CC(C)(C)c1cccc(C(C)(C)C)c1OC(=O)NS(=O)(=O)N(Cc1ccccc1)Cc1ccccc1 [Example 24, Carbamic acid, [[bis(phenylmethyl)amino]sulfonyl]-, 2,6-bis(1,1-dimethylethyl)-phenyl ester], the inhibition at 10 µM was 31%.

With CC(C)c1cccc(C(C)C)c1OC(=O)NS(=O)(=O)N(Cc1ccccc1)Cc1ccccc1 [Example 25, Carbamic acid, [[bis(phenylmethyl)amino]sulfonyl]-, 2,6-bis(1-methylethyl)-phenyl ester] the inhibition at 10 µM was 33.2%.
